What all share (assay type): cell-based, human
The subject of one test is 22Rv1 cells. The experiment in a line: Apoptosis assay (annexin-V, TUNEL) in 22Rv1. Conditions: 22Rv1, 1 μM. On the procedure: Apoptosis Assay. An apoptosis assay is carried out using the Thermo Fisher ApoDETECT Annexin V-FITC kit following the protocol recommended by the vendor. […] Then, fixed cells are incubated with Annexin V-FITC in PBS solution for 30 minutes at room temperature. After washing three times with PBS, cells are treated with 300 nM DAPI in PBS for 5 minutes at room temperature. Finally, after washing three times with PBS, mounting solution is added and the cells are visualized using immunofluorescence microscopy. Next, a TUNEL assay is performed using Promega DeadEnd Fluorometric TUNEL system. After treatment with Test Compound and fixation as described above in the Annexin-V experiment, 100 μl of equilibration buffer is incubated for 10 min. Then, 50 μl of TdT reaction mix is added and incubated for 60 min at 37° C. in a humidified chamber. Finally, stop solution is added and samples are mounted on slides using mounting medium. To assess non-specific cytotoxicity, an LDH assay kit is used.

Another test relates to PC3. The experiment in a line: PC3 cell proliferation. Conditions: AR-negative cell line; 1 μM. As for the experimental part: The human prostate cancer cell line, 22Rv1 has been reported to express a high level of AR-V7. Thus, 22Rv1 was seeded at 50,000 cells/well on a 24-well plate in quadruplicates and treated with test compound in concentrations ranging up to 20 μM for four days. Standard culture media was RPMI-1640 supplemented with 10% fetal bovine serum. The test compound initially was dissolved in DMSO at 50 mM. This stock solution was then diluted as needed for the indicated concentrations. At the end of the four-day period, cells were harvested using 1% trypsin and counted using an automated cell counter.
Cell Culture. Human CaP cell lines, LNCaP, 22Rv1, VCaP, PC3, and DU145 are obtained from the American Type Culture Collection (ATCC) and maintained in the standard culture media: RPMI-1640 supplemented with 10% fetal bovine serum (FBS). LNCaP, 22Rv1, and VCaP are androgen-responsive cell lines, while PC3 and DU145 are not. To establish SAT resistant CaP cell lines, LNCaP, 22Rv1, and VCaP are treated continuously with 10-50 μM abiraterone, apalutamide, darolutamide, or enzalutamide. […] Mycoplasma contamination is also assessed using a PCR based detection system.

A further test relates to VCaP. The experiment in a line: VCaP cell proliferation. The note with it: androgen-responsive cell line; 1 μM.
The test system of test [1] is SAT-resistant CaP cell lines. The experiment in a line: Cell proliferation assay in twelve SAT-resistant CaP cell lines. Conditions: 1 μM, 6 days; all lines except 22Rv1-EnzR. As for the experimental part:
Cell Culture. Human CaP cell lines, LNCaP, 22Rv1, VCaP, PC3, and DU145 are obtained from the American Type Culture Collection (ATCC) and maintained in the standard culture media: RPMI-1640 supplemented with 10% fetal bovine serum (FBS). LNCaP, 22Rv1, and VCaP are androgen-responsive cell lines, while PC3 and DU145 are not. To establish SAT resistant CaP cell lines, LNCaP, 22Rv1, and VCaP are treated continuously with 10-50 μM abiraterone, apalutamide, darolutamide, or enzalutamide. After 3-6 months, stable cell lines are established and designated as LNCaP-Abi^R, LNCaP-Apa^R, LNCaP-Daro^R, LNCaP-Enz^R, VCaP-Abi^R, VCaP-Apa^R, VCaP-Daro^R, VCaP-Enz^R, 22Rv1-Abi^R, 22Rv1-Apa^R, 22Rv1-Daro^R and 22Rv1-Enz^R. Unless otherwise specified, the standard culture media for these SAT-resistant cell lines included 10 μM of their respective SAT. For the proteasome inhibitor study, the inhibitors MG132 and Epoxomicin are used. The E3 ligase inhibitors Heclin, Nutlin 3a, Thalidomide, and VH298 are used. Cell lines obtained from ATCC are confirmed by checking their morphology using optical microscopy, establishing baselines for cell proliferation, verifying species of origin using isoenzymology, and characterizing the cell's DNA fingerprint using short tandem repeat (STR) profiling. Mycoplasma contamination is also assessed using a PCR based detection system. […]

On to `Cc1ncsc1-c1ccc([C@H](C)NC(=O)[C@@H]2C[C@@H](O)CN2C(=O)[C@@H](NC(=O)CCCCNC(=O)COc2c(-c3csc(N4CCOCC4)n3)ccc(F)c2F)C(C)(C)C)cc1` [Example 16, (2S,4R)-1-((S)-2-(5-(2-(2,3-difluoro-6-(2-morpholinothiazol-4-yl)phenoxy)acetamido)pentanamido)-3,3-dimethylbutanoyl)-4-hydroxy-N-((S)-1-(4-(4-methylthiazol-5-yl)phenyl)ethyl)pyrrolidine-2-carboxamide], for which the “apoptosis, TUNEL assay” value in the test on 22Rv1 cells is listed as “confirmed”. The “apoptosis, annexin-V assay” value in the test with 22Rv1 cells (0 to 48 hours, starts approximately three hours after treatment, increases through 48 hours) is “increase in annexin-V staining”. The “effect on PC3 cells” value in the test with PC3 is on record as “not affected”. Moreover, the “effect on proliferation of VCaP” value in the test on VCaP is reported as “inhibits the proliferation”. The “cell counts of SAT-resistant CaP cell lines, % of control” value in test [1] is 6-80 % of control.

These data come from patent US20230132823A1, “BI-FUNCTIONAL COMPOUNDS AND METHODS FOR TARGETED UBIQUITINATION OF ANDROGEN RECEPTOR” (MONTELINO THERAPEUTICS, INC., priority 2020, published 2023).
